Results: ChEMBL document CHEMBL5625167, “In vitro bioevaluation and docking study of dihydrosphingosine and ethambutol analogues against sensitive and multi-drug resistant Mycobacterium tuberculosis” (Eur J Med Chem, 2023)
Values after ≈ are worked out from the molar mass of the structure shown. Values joined by “and” are separate entries in the source; they are usually repeats but may differ in a detail not shown here. Equal entries are not always repeated.

Assays:
Type in all cases: functional
[1] = test system: Mycobacterium tuberculosis; test: Antimycobacterial activity against pre-extensively drug resistant Mycobacterium tuberculosis 1576 incubated for 7 days by resazurin dye based two-dimensional micro dilution checkerboard assay in presence of 2-aminoheptadecan-1-ol; settings: time 7 day
[2] = test system: Mycobacterium tuberculosis; test: Antimycobacterial activity against pre-extensively drug resistant Mycobacterium tuberculosis 1576 incubated for 7 days by resazurin dye based two-dimensional micro dilution checkerboard assay in presence of 1-((3,4,5-trimethoxybenzyl)oxy)heptadecan-2-amine; settings: time 7 day
[3] = test system: Mycobacterium tuberculosis; test: Antimycobacterial activity against pre-extensively drug resistant Mycobacterium tuberculosis 1576 incubated for 7 days by resazurin dye based two-dimensional micro dilution checkerboard assay in presence of 1-(benzyloxy)heptadecan-2-amine; settings: time 7 day
[4] = test system: Mycobacterium tuberculosis; test: Antimycobacterial activity against isoniazid, rifampicin, ethambutol, streptomycin and levofloxacin resistant Mycobacterium tuberculosis clinical isolate 1576 incubated for 7 days by resazurin dye based colorimetric method analysis; settings: Mycobacterium tuberculosis, 1576, 168 h; time 7 day
[5] = test system: Mycobacterium tuberculosis; test: Antimycobacterial activity against pre-extensively drug resistant Mycobacterium tuberculosis 1576 assessed as fractional inhibitory concentration index incubated for 7 days by resazurin dye based two-dimensional micro dilution checkerboard assay in presence of rifampicin; settings: time 7 day
[6] = test system: Mycobacterium tuberculosis; test: Additive antimycobacterial activity against pre-extensively drug resistant Mycobacterium tuberculosis 1576 assessed as fractional inhibitory concentration index incubated for 7 days by resazurin dye based two-dimensional micro dilution checkerboard assay in presence of isoniazid; settings: time 7 day
[7] = test system: Mycobacterium tuberculosis; test: Additive antimycobacterial activity against pre-extensively drug resistant Mycobacterium tuberculosis 1576 incubated for 7 days by resazurin dye based two-dimensional micro dilution checkerboard assay in presence of amikacin; settings: time 7 day
[8] = test system: Mycobacterium tuberculosis; test: Additive antimycobacterial activity against pre-extensively drug resistant Mycobacterium tuberculosis 1576 assessed as fractional inhibitory concentration index incubated for 7 days by resazurin dye based two-dimensional micro dilution checkerboard assay in presence of levofloxacin; settings: time 7 day
[9] = test system: Mycobacterium tuberculosis; test: Additive antimycobacterial activity against pre-extensively drug resistant Mycobacterium tuberculosis 1576 incubated for 7 days by resazurin dye based two-dimensional micro dilution checkerboard assay in presence of levofloxacin; settings: time 7 day
[10] = test system: Mycobacterium tuberculosis; test: Additive antimycobacterial activity against pre-extensively drug resistant Mycobacterium tuberculosis 1576 incubated for 7 days by resazurin dye based two-dimensional micro dilution checkerboard assay in presence of isoniazid; settings: time 7 day
[11] = test system: Mycobacterium tuberculosis; test: Antimycobacterial activity against pre-extensively drug resistant Mycobacterium tuberculosis 1576 incubated for 7 days by resazurin dye based two-dimensional micro dilution checkerboard assay in presence of rifampicin; settings: time 7 day
[12] = test system: Mycobacterium tuberculosis; test: Additive antimycobacterial activity against pre-extensively drug resistant Mycobacterium tuberculosis 1576 assessed as fractional inhibitory concentration index incubated for 7 days by resazurin dye based two-dimensional micro dilution checkerboard assay in presence of amikacin; settings: time 7 day
[13] = test system: Mycobacterium tuberculosis; test: Additive antimycobacterial activity against pre-extensively drug resistant Mycobacterium tuberculosis 1576 incubated for 7 days by resazurin dye based two-dimensional micro dilution checkerboard assay in presence of ethambutol; settings: time 7 day
[14] = test system: Mycobacterium tuberculosis; test: Additive antimycobacterial activity against pre-extensively drug resistant Mycobacterium tuberculosis 1576 assessed as fractional inhibitory concentration index incubated for 7 days by resazurin dye based two-dimensional micro dilution checkerboard assay in presence of ethambutol; settings: time 7 day
[15] = test system: Mycobacterium tuberculosis; test: Additive antimycobacterial activity against pre-extensively drug resistant Mycobacterium tuberculosis 1576 assessed as fractional inhibitory concentration index incubated for 48 hrs by micro dilution checkerboard assay in presence of rifampicin
[16] = test system: Mycobacterium tuberculosis; test: Antimycobacterial activity against pre-extensively drug resistant Mycobacterium tuberculosis 1576 assessed as reduction in CFU count at 8 uM in presence of rifampicin measured after 12 days relative to control; parameters: scale not given: the % may be the effect or the level left; settings: time 12 day
[17] = test system: Mycobacterium tuberculosis; test: Antimycobacterial activity against pre-extensively drug resistant Mycobacterium tuberculosis 1576 assessed as reduction in CFU count at 8 uM measured after 12 days relative to control; parameters: scale not given: the % may be the effect or the level left; settings: time 12 day
[18] = test system: Mycobacterium tuberculosis; test: Synergistic antimycobacterial activity against pre-extensively drug resistant Mycobacterium tuberculosis 1576 assessed as reduction in concentration required to inhibit bacterial growth incubated for 7 days by resazurin dye based two-dimensional micro dilution checkerboard assay in presence of rifampicin relative to control; parameters: scale not given: the % may be the effect or the level left; settings: time 7 day
[19] = test system: Mycobacterium tuberculosis; test: Synergistic antimycobacterial activity against pre-extensively drug resistant Mycobacterium tuberculosis 1576 assessed as fractional inhibitory concentration index incubated for 7 days by resazurin dye based two-dimensional micro dilution checkerboard assay in presence of rifampicin; settings: time 7 day
[20] = test system: Mycobacterium tuberculosis; test: Synergistic antimycobacterial activity against pre-extensively drug resistant Mycobacterium tuberculosis 1576 incubated for 7 days by resazurin dye based two-dimensional micro dilution checkerboard assay in presence of rifampicin; settings: time 7 day

CO[C@H]1/C=C/O[C@@]2(C)Oc3c(C)c(O)c4c(O)c(c(/C=N/N5CCN(C)CC5)c(O)c4c3C2=O)NC(=O)/C(C)=C\C=C\[C@H](C)[C@H](O)[C@@H](C)[C@@H](O)[C@@H](C)[C@H](OC(C)=O)[C@@H]1C [RIFAMPIN]
FIC [1]: 0.031
FIC [2]: 0.25
FIC [3]: 0.063
MIC [4]: 78 µM and 64 µg/mL

CCCCCCCCCCCCCCCCCC(CO)NCC (configuration not stated)
MIC [4]: 16 µM (≈ 5.24 µg/mL)

CCCCCCCCCCCCCCCC(COCc1ccccc1)NCC (configuration not stated)
MIC [4]: 16 µM (≈ 6.23 µg/mL)

CCCCc1ccc(CCCCCCCC(N)CO)cc1 (configuration not stated)
MIC [4]: 2 µM (≈ 0.583 µg/mL)

CCCCCCCCCCCCCCCCCC(N)CO (configuration not stated)
MIC [4]: 8 µM (≈ 2.4 µg/mL)

CCCCCCCCCCCCCCCCCC(COCc1ccccc1)NCCCCCC (configuration not stated)
MIC [4]: 64 µM (≈ 30.3 µg/mL)

CCCCCCCCCCCCCCCC(N)CO (configuration not stated)
fractional inhibitory concentration index (FICI) [5]: 0.53
fractional inhibitory concentration index (FICI) [6]: 0.63
FIC [7]: 0.5
fractional inhibitory concentration index (FICI) [8]: 1
FIC [9]: 0.5
FIC [10]: 0.5
FIC [11]: 0.5
fractional inhibitory concentration index (FICI) [12]: 0.75
FIC [13]: 0.5
MIC [4]: 3.03 µM (≈ 0.823 µg/mL)
fractional inhibitory concentration index (FICI) [14]: 0.75
fractional inhibitory concentration index (FICI) [15]: 0.53

CCCCCCCCCCCCCCCCCCCC(CNCC)NC(=O)OC(C)(C)C (configuration not stated)
MIC [4]: 4 µM (≈ 1.82 µg/mL)

CCCCCCCCCCCCCCCC(N)CN (configuration not stated)
MIC [4]: 390 µM (≈ 105 µg/mL)

CCCCCCCCCCCCCCCC(CNCC(=O)OCC)NC(=O)OC(C)(C)C (configuration not stated)
MIC [4]: 32 µM (≈ 14.6 µg/mL)

CCCCCCCCCCCCCCCC(CO)N(CC)CC (configuration not stated)
MIC [4]: 32 µM (≈ 10.5 µg/mL)

CCCCc1ccc(CCCCCC(N)CO)cc1 (configuration not stated)
MIC [4]: 64 µM (≈ 16.9 µg/mL)

CCCCCCCCCCCCCCCCCCCC(CN)NC(=O)OC(C)(C)C (configuration not stated)
MIC [4]: 64 µM (≈ 27.3 µg/mL)

CCCCCCCCCCCCCCCC(CO)N(CCCC)CCCC (configuration not stated)
MIC [4]: 8 µM (≈ 3.07 µg/mL)

CCCCc1ccc(CCCCCCCCCC(CO)NC(=O)OC(C)(C)C)cc1 (configuration not stated)
MIC [4]: 16 µM (≈ 6.71 µg/mL)

CCCCc1ccc(CCCCCC(CO)NC(=O)OC(C)(C)C)cc1 (configuration not stated)
MIC [4]: 16 µM (≈ 5.82 µg/mL)

NNC(=O)c1ccncc1 [ISONIAZID]
FIC [1]: 0.125
FIC [2]: 0.5
FIC [3]: 0.125
MIC [4]: 934 µM and 128 µg/mL

CCCCCCCCCCCCCCCC(CNCCCCCC)NC(=O)OC(C)(C)C (configuration not stated)
MIC [4]: 8 µM (≈ 3.64 µg/mL)

CCCCCCCCCCCCCCCC(CO)NCC (configuration not stated)
MIC [4]: 32 µM (≈ 9.59 µg/mL)

CCCCCCCCCCCCCCCCCCCC(COCc1ccccc1)NCC (configuration not stated)
MIC [4]: 16 µM (≈ 7.13 µg/mL)

CCCCCCCCCCCCCCCCCC(CO)NCCCC (configuration not stated)
MIC [4]: 32 µM (≈ 11.4 µg/mL)

CCCCCCCCCCCCCCCCCCCC(N)COCc1ccccc1 (configuration not stated)
MIC [4]: 32 µM (≈ 13.4 µg/mL)

CCCCCCCCCCCCCCCC(CO)NCCCCCC (configuration not stated)
MIC [4]: 64 µM (≈ 22.8 µg/mL)

CCCCCCCCCCCC(CO)NCC (configuration not stated)
MIC [4]: 64 µM (≈ 15.6 µg/mL)

CCCCCCCCCCCC(CNCC)NC(=O)OC(C)(C)C (configuration not stated)
MIC [4]: 64 µM (≈ 21.9 µg/mL)

CCCCCCCCCCCCCCCC(CO)NCCCC (configuration not stated)
MIC [4]: 64 µM (≈ 21 µg/mL)

CCCCCCCCCCCCCCCC(CNCCCC)NC(=O)OC(C)(C)C (configuration not stated)
MIC [4]: 8 µM (≈ 3.41 µg/mL)

C[C@H]1COc2c(N3CCN(C)CC3)c(F)cc3c(=O)c(C(=O)O)cn1c23 [LEVOFLOXACIN ANHYDROUS]
FIC [1]: 0.5
FIC [2]: 0.5
FIC [3]: 0.5
MIC [4]: 5.5 µM and 2 µg/mL

CC[C@@H](CO)NCCN[C@@H](CC)CO [ETHAMBUTOL]
FIC [1]: 0.25
FIC [2]: 0.25
FIC [3]: 1
MIC [4]: 28.8 µM and 8 µg/mL

CCCCCCCCCCCCCCCCCC(CO)N(CC)CC (configuration not stated)
MIC [4]: > 64 µM

NCC[C@H](O)C(=O)N[C@@H]1C[C@H](N)[C@@H](O[C@H]2O[C@H](CN)[C@@H](O)[C@H](O)[C@H]2O)[C@H](O)[C@H]1O[C@H]1O[C@H](CO)[C@@H](O)[C@H](N)[C@H]1O [AMIKACIN]
FIC [1]: 0.25
FIC [2]: 0.25
FIC [3]: 0.125
MIC [4]: 0.8 µM and 0.63 µg/mL

CCCCCCCCCCCCCCCC(CO)NCCCCCCCCCC (configuration not stated)
MIC [4]: 64 µM (≈ 26.4 µg/mL)

CCCCCCCCCCCC(N)CO (configuration not stated)
MIC [4]: 32 µM (≈ 6.89 µg/mL)

CCCCc1ccc(CCCCCCCC(CO)NC(=O)OC(C)(C)C)cc1 (configuration not stated)
MIC [4]: 16 µM (≈ 6.27 µg/mL)

CCCCCCCCCCCCCCCC(CN=[N+]=[N-])NC(=O)OC(C)(C)C (configuration not stated)
MIC [4]: 16 µM (≈ 6.35 µg/mL)

CCCCCCCCCCCCCCCC(N)CNCC (configuration not stated)
MIC [4]: 16 µM (≈ 4.78 µg/mL)

CCCCCCCCCCCC(CO)NCCCC (configuration not stated)
MIC [4]: 32 µM (≈ 8.69 µg/mL)

CCCCCCCCCCCCCCCC(CN)NC(=O)OC(C)(C)C (configuration not stated)
MIC [4]: 17.6 µM (≈ 6.52 µg/mL)

CCCCCCCCCCCC(CO)N(CC)CC (configuration not stated)
MIC [4]: 32 µM (≈ 8.69 µg/mL)

CCCCc1ccc(CCCCCCCCCC(N)CO)cc1 (configuration not stated)
MIC [4]: 2 µM (≈ 0.639 µg/mL)

CCCCCCCCCCCCCCCC(N)COCc1cc(OC)c(OC)c(OC)c1 (configuration not stated)
fractional inhibitory concentration index (FICI) [6]: 1
Activity [16]: >=99.9%
FIC [7]: 0.5
fractional inhibitory concentration index (FICI) [8]: 1
FIC [9]: 0.5
FIC [10]: 0.5
Activity [17]: >99.9%
Activity [18]: 75%
fractional inhibitory concentration index (FICI) [12]: 0.75
FIC [13]: 0.5
MIC [4]: 8 µM (≈ 3.61 µg/mL)
fractional inhibitory concentration index (FICI) [19]: 0.5
FIC [20]: 0.25
fractional inhibitory concentration index (FICI) [14]: 0.75

CCCCCCCCCCCCCCCC(N)COCc1ccccc1 (configuration not stated)
fractional inhibitory concentration index (FICI) [5]: 0.56
fractional inhibitory concentration index (FICI) [6]: 0.63
FIC [7]: 0.5
fractional inhibitory concentration index (FICI) [8]: 1
FIC [9]: 0.5
FIC [10]: 0.5
FIC [11]: 0.5
fractional inhibitory concentration index (FICI) [12]: 0.63
FIC [13]: 0.5
MIC [4]: 4.5 µM (≈ 1.63 µg/mL)
fractional inhibitory concentration index (FICI) [14]: 1.5
fractional inhibitory concentration index (FICI) [15]: 0.56

CCCCCCCCCCCCCCCCCC(N)COCc1ccccc1 (configuration not stated)
MIC [4]: 64 µM (≈ 24.9 µg/mL)

CCCCCCCCCCCCCCCCCC(CN)NC(=O)OC(C)(C)C (configuration not stated)
MIC [4]: 16 µM (≈ 6.38 µg/mL)

CCCCCCCCCCCCCCCCCCCC(CO)N(CC)CC (configuration not stated)
MIC [4]: > 64 µM

CCCCCCCCCCCCCCCC(COCc1ccccc1)NCCCCCC (configuration not stated)
MIC [4]: 64 µM (≈ 28.5 µg/mL)

CCCCCCCCCCCCCCCC(CNCC)NC(=O)OC(C)(C)C (configuration not stated)
MIC [4]: 16 µM (≈ 6.38 µg/mL)
